{"source": "patent US11718626B2", "about": "“Macrocyclic compounds for treatment of medical disorders” (Achillion Pharmaceuticals, Inc., priority 2017, dated 2023)", "key": {"[1]": {"settings": "rcm bond, Grubbs II, toluene, 80.0 °C"}, "[2]": {"settings": "rcm bond, toluene, 80.0 °C"}}, "note": "Values joined by “and” are separate entries in the source; they are usually repeats but may differ in a detail not shown here. Equal entries are not always repeated. Where two headings read alike, the source gives them in different places."}
{"compound": "CC(=O)c1nn2c3cc(c(-c4cnc(C)nc4)cc13)OCCCCC=CCOC[C@@]13C[C@@H](C(=O)Nc4nc(Br)ccc4C)N(C(=O)C2)[C@@H]1C3", "values": [{"measurement": "ring closure, yield after HPLC", "setting": "[1]; from C=CCCCCOc1cc2c(cc1-c1cnc(C)nc1)c(C(C)=O)nn2CC(=O)N1[C@H](C(=O)Nc2nc(Br)ccc2C)C[C@@]2(COCC=C)C[C@@H]12, 18-membered ring, 1.32 mM, 16.0 h", "value": "10.6% and 7.07%"}]}
{"compound": "CC(=O)c1nn2c3c(nc(-c4cnc(C)nc4)cc13)CC=CCCCC(=O)NC[C@@]13C[C@@H](C(=O)Nc4nc(C(F)(F)F)ccc4C)N(C(=O)C2)[C@@H]1C3", "values": [{"measurement": "ring closure, yield after HPLC", "setting": "[1]; from C=CCCCC(=O)NC[C@@]12C[C@@H](C(=O)Nc3nc(C(F)(F)F)ccc3C)N(C(=O)Cn3nc(C(C)=O)c4cc(-c5cnc(C)nc5)nc(CC=C)c43)[C@@H]1C2, 17-membered ring, 1.4 mM", "value": 26.9, "unit": "%"}]}
{"compound": "CC(=O)c1nn2c3c(cc(-c4cnc(C)nc4)cc13)CCCCC=CCc1cccc(n1)OC[C@@]13C[C@@H](C(=O)Nc4nc(Br)ccc4C)N(C(=O)C2)[C@@H]1C3", "values": [{"measurement": "ring closure, yield after HPLC", "setting": "[1]; from C=CCCCCc1cc(-c2cnc(C)nc2)cc2c(C(C)=O)nn(CC(=O)N3[C@H](C(=O)Nc4nc(Br)ccc4C)C[C@@]4(COc5cccc(CC=C)n5)C[C@@H]34)c12, 1.6 mM, 16.0 h", "value": 78.1, "unit": "%"}]}
{"compound": "Cc1ncc(-c2cc3c(C#N)nn4c3c(n2)CC=CCCCC(=O)NC[C@@]23C[C@@H](C(=O)Nc5nc(Br)ccc5C)N(C(=O)C4)[C@@H]2C3)cn1", "values": [{"measurement": "ring closure, isolated yield", "setting": "[2]; from C=CCCCC(=O)NC[C@@]12C[C@@H](C(=O)Nc3nc(Br)ccc3C)N(C(=O)Cn3nc(C#N)c4cc(-c5cnc(C)nc5)nc(CC=C)c43)[C@@H]1C2, 17-membered ring, Grubbs II, 1.27 mM, 16.0 h", "value": 44.8, "unit": "%"}]}
{"compound": "(41R,43S,45S,E)-13-Acetyl-N-(6-bromo-3-methylpyridin-2-yl)-3,14-dioxo-11H-6,15-dioxa-42,13-diaza-1(1,6)-indazola-4(2,5)-bicyclo[3.1.0]hexanacyclopentadecaphan-8-ene-43-carboxamide", "values": [{"measurement": "ring closure, isolated yield", "setting": "[2]; 20-membered ring, Grubbs II, 1.48 mM", "value": 4.1, "unit": "%"}]}
{"compound": "CC(=O)c1nn2c3c(cc(-c4cnc(C)nc4)cc13)CCCCCCC=CCOC[C@@]13C[C@@H](C(=O)Nc4nc(Br)ccc4C)N(C(=O)C2)[C@@H]1C3", "values": [{"measurement": "ring closure, isolated yield", "setting": "[2]; from C=CCCCCCCc1cc(-c2cnc(C)nc2)cc2c(C(C)=O)nn(CC(=O)N3[C@H](C(=O)Nc4nc(Br)ccc4C)C[C@@]4(COCC=C)C[C@@H]34)c12, 19-membered ring, Grubbs II, 3.0 mM, 4.0 h", "value": 88.7, "unit": "%"}]}
{"compound": "CC(=O)c1nn2c3c(cc(-c4cnc(C)nc4)cc13)CCCCC=CCc1cccc(c1)COC[C@@]13C[C@@H](C(=O)Nc4nc(Br)ccc4C)N(C(=O)C2)[C@@H]1C3", "values": [{"measurement": "ring closure, isolated yield", "setting": "[2]; from C=CCCCCc1cc(-c2cnc(C)nc2)cc2c(C(C)=O)nn(CC(=O)N3[C@H](C(=O)Nc4nc(Br)ccc4C)C[C@@]4(COCc5cccc(CC=C)c5)C[C@@H]34)c12, 21-membered ring, Grubbs II, 1.83 mM, 16.0 h", "value": 40.9, "unit": "%"}]}
{"compound": "tert-Butyl (42S,44R,E)-16-Bromo-44-fluoro-3-oxo-6-oxa-2-aza-1(2,3)-pyridina-4(2,4)-pyrrolidinacyclotridecaphan-12-ene-41-carboxylate", "values": [{"measurement": "ring closure, isolated yield", "setting": "[2]; 16-membered ring, Grubbs II, 1.83 mM", "value": 59.3, "unit": "%"}]}
{"compound": "CC(C)(C)OC(=O)N1[C@H]2C[C@@]3(CNC(=O)C(F)(F)CC=CCOCc4ccc(Br)nc4NC2=O)C[C@@H]13", "values": [{"measurement": "ring closure, isolated yield", "setting": "[2]; from C=CCOCc1ccc(Br)nc1NC(=O)[C@@H]1C[C@@]2(CNC(=O)C(F)(F)CC=C)C[C@H]2N1C(=O)OC(C)(C)C, 17-membered ring, Grubbs II, 2.0 mM", "value": 96.5, "unit": "%"}]}
{"compound": "CC(=O)c1nn2c3cc(ccc13)NC(=O)NCCCC=CCOC[C@@]13C[C@@H](C(=O)Nc4nc(Br)ccc4C)N(C(=O)C2)[C@@H]1C3", "values": [{"measurement": "ring closure, yield after HPLC", "setting": "[1]; from C=CCCCNC(=O)Nc1ccc2c(C(C)=O)nn(CC(=O)N3[C@H](C(=O)Nc4nc(Br)ccc4C)C[C@@]4(COCC=C)C[C@@H]34)c2c1, 20-membered ring, 1.6 mM, 16.0 h", "value": 2.1, "unit": "%"}]}
{"compound": "CC(=O)c1nn2c3cc(ccc13)C(=O)NCCCCC=CCOC[C@@]13C[C@@H](C(=O)Nc4nc(Br)ccc4C)N(C(=O)C2)[C@@H]1C3", "values": [{"measurement": "ring closure, isolated yield", "setting": "[2]; from C=CCCCCNC(=O)c1ccc2c(C(C)=O)nn(CC(=O)N3[C@H](C(=O)Nc4nc(Br)ccc4C)C[C@@]4(COCC=C)C[C@@H]34)c2c1, 20-membered ring, Grubbs II, 1.44 mM, 16.0 h", "value": 45.6, "unit": "%"}]}
{"compound": "CC(=O)c1nn2c3c(cc(-c4cnc(C)nc4)cc13)CCCCC=CCC=C[C@@]13C[C@@H](C(=O)Nc4nc(Br)ccc4C)N(C(=O)C2)[C@@H]1C3", "values": [{"measurement": "ring closure, isolated yield", "setting": "[2]; from C=CCC=C[C@@]12C[C@@H](C(=O)Nc3nc(Br)ccc3C)N(C(=O)Cn3nc(C(C)=O)c4cc(-c5cnc(C)nc5)cc(CCCCC=C)c43)[C@@H]1C2, 17-membered ring, Grubbs II, 2.27 mM, 16.0 h", "value": 21.8, "unit": "%"}]}
{"compound": "CC(C)(C)OC(=O)N1[C@H]2C[C@@]3(CNC(=O)C(C)(C)CC=CCOCc4ccc(Br)nc4NC2=O)C[C@@H]13", "values": [{"measurement": "ring closure, isolated yield", "setting": "[2]; from C=CCOCc1ccc(Br)nc1NC(=O)[C@@H]1C[C@@]2(CNC(=O)C(C)(C)CC=C)C[C@H]2N1C(=O)OC(C)(C)C, 17-membered ring, Grubbs II, 3.14 mM, 16.0 h", "value": 83.1, "unit": "%"}]}
{"compound": "CC(=O)c1nn2c3c(cc(-c4cnc(C)nc4)cc13)CCCCCCC=Cc1cn(nn1)C[C@@]13C[C@@H](C(=O)Nc4nc(Br)ccc4C)N(C(=O)C2)[C@@H]1C3", "values": [{"measurement": "ring closure, isolated yield", "setting": "[2]; from C=CCCCCCCc1cc(-c2cnc(C)nc2)cc2c(C(C)=O)nn(CC(=O)N3[C@H](C(=O)Nc4nc(Br)ccc4C)C[C@@]4(Cn5cc(C=C)nn5)C[C@@H]34)c12, 20-membered ring, Grubbs II, 2.6 mM, 16.0 h", "value": 59.4, "unit": "%"}, {"measurement": "ring closure, yield after HPLC", "setting": "[1]; from C=CCCCCCCc1cc(-c2cnc(C)nc2)cc2c(C(C)=O)nn(CC(=O)N3[C@H](C(=O)Nc4nc(Br)ccc4C)C[C@@]4(Cn5cc(C=C)nn5)C[C@@H]34)c12, 20-membered ring, 2.6 mM, 16.0 h", "value": 3.97, "unit": "%"}, {"measurement": "ring closure, yield after HPLC", "setting": "[1]; from C=CCCCCCCc1cc(-c2cnc(C)nc2)cc2c(C(C)=O)nn(CC(=O)N3[C@H](C(=O)Nc4nc(Br)ccc4C)C[C@@]4(Cn5cc(C=C)nn5)C[C@@H]34)c12, 2.6 mM, 16.0 h", "value": 6.93, "unit": "%"}]}
{"compound": "CC(=O)c1nn2c3c(cc(-c4cnc(C)nc4)cc13)CC=CCCCC(=O)N(C)C[C@@]13C[C@@H](C(=O)Nc4ccc(C)c(C(F)(F)F)n4)N(C(=O)C2)[C@@H]1C3", "values": [{"measurement": "ring closure, isolated yield", "setting": "[2]; from C=CCCCC(=O)N(C)C[C@@]12C[C@@H](C(=O)Nc3ccc(C)c(C(F)(F)F)n3)N(C(=O)Cn3nc(C(C)=O)c4cc(-c5cnc(C)nc5)cc(CC=C)c43)[C@@H]1C2, 17-membered ring, Grubbs II, 1.24 mM", "value": 70.6, "unit": "%"}]}
{"compound": "CC(=O)c1nn2c3cc(ccc13)NC(=O)OCCCC=CCOC[C@@]13C[C@@H](C(=O)Nc4nc(Br)ccc4C)N(C(=O)C2)[C@@H]1C3", "values": [{"measurement": "ring closure, yield after HPLC", "setting": "[1]; from C=CCCCOC(=O)Nc1ccc2c(C(C)=O)nn(CC(=O)N3[C@H](C(=O)Nc4nc(Br)ccc4C)C[C@@]4(COCC=C)C[C@@H]34)c2c1, 20-membered ring, 2.0 mM, 2.0 h", "value": 68.5, "unit": "%"}]}
{"compound": "CC(C)(C)OC(=O)N1[C@H]2C[C@@]3(CCCC=CCOCc4ccc(Br)nc4NC2=O)C[C@@H]13", "values": [{"measurement": "ring closure, isolated yield", "setting": "[2]; from C=CCCC[C@@]12C[C@@H](C(=O)Nc3nc(Br)ccc3COCC=C)N(C(=O)OC(C)(C)C)[C@@H]1C2, 15-membered ring, Grubbs II, 1.87 mM", "value": 70.4, "unit": "%"}]}
{"compound": "CC(C)(C)OC(=O)N1[C@H]2C[C@@]3(Cc4nc(no4)C=CCOCc4ccc(Br)nc4NC2=O)C[C@@H]13", "values": [{"measurement": "ring closure, isolated yield", "setting": "[2]; from C=CCOCc1ccc(Br)nc1NC(=O)[C@@H]1C[C@@]2(Cc3nc(C=C)no3)C[C@H]2N1C(=O)OC(C)(C)C, 16-membered ring, Zhan-1B, 1.75 mM, 16.0 h", "value": 56.2, "unit": "%"}]}
{"compound": "tert-Butyl (41R,43S,45R,E)-16-Bromo-8,8-difluoro-3,7-dioxo-13-oxa-42,2,6-triaza-1(2,3)-pyridina-4(3,5)-bicyclo[3.1.0]hexanacyclotetradecaphan-10-ene-42-carboxylate", "values": [{"measurement": "ring closure, isolated yield", "setting": "[2]; 17-membered ring, Grubbs II, 2.0 mM", "value": 96.5, "unit": "%"}]}
{"compound": "CN1CCCCC=CCc2ccc(Br)nc2NC(=O)[C@@H]2C[C@]3(C[C@H]3N2C(=O)OC(C)(C)C)C1", "values": [{"measurement": "ring closure, isolated yield", "setting": "[2]; from C=CCCCCN(C)C[C@@]12C[C@@H](C(=O)Nc3nc(Br)ccc3CC=C)N(C(=O)OC(C)(C)C)[C@@H]1C2, 16-membered ring, Grubbs II, 1.83 mM", "value": 93.5, "unit": "%"}]}
{"compound": "CC(=O)c1nn2c3c(cc(-c4cnc(C)nc4)cc13)C=CCCCCCN(C)C[C@@]13C[C@@H](C(=O)Nc4nc(Br)ccc4C)N(C(=O)C2)[C@@H]1C3", "values": [{"measurement": "ring closure, isolated yield", "setting": "[2]; from C=CCCCCCN(C)C[C@@]12C[C@@H](C(=O)Nc3nc(Br)ccc3C)N(C(=O)Cn3nc(C(C)=O)c4cc(-c5cnc(C)nc5)cc(C=C)c43)[C@@H]1C2, 17-membered ring, Zhan-1B, 4.38 mM", "value": 47.4, "unit": "%"}]}
{"compound": "CC(=O)c1nn2c3cc(ccc13)NC(=O)OCCCCC=CCOC[C@@]13C[C@@H](C(=O)Nc4nc(Br)ccc4C)N(C(=O)C2)[C@@H]1C3", "values": [{"measurement": "ring closure, isolated yield", "setting": "[2]; from C=CCCCCOC(=O)Nc1ccc2c(C(C)=O)nn(CC(=O)N3[C@H](C(=O)Nc4nc(Br)ccc4C)C[C@@]4(COCC=C)C[C@@H]34)c2c1, 21-membered ring, Grubbs II, 1.7 mM, 16.0 h", "value": 51.2, "unit": "%"}]}
{"compound": "CN1CCCCCC=C[C@@]23C[C@@H](C(=O)Nc4nc(Br)ccc4C1)N(C(=O)OC(C)(C)C)[C@@H]2C3", "values": [{"measurement": "ring closure, isolated yield", "setting": "[2]; from C=CCCCCCN(C)Cc1ccc(Br)nc1NC(=O)[C@@H]1C[C@@]2(C=C)C[C@H]2N1C(=O)OC(C)(C)C, 16-membered ring, Grubbs II, 1.78 mM, 16.0 h", "value": 72.4, "unit": "%"}]}
{"compound": "CC(=O)c1nn2c3c(cc(-c4cnc(C)nc4)cc13)CCC=CCCCC(=O)NC[C@@]13C[C@@H](C(=O)Nc4nc(Br)ccc4C)N(C(=O)C2)[C@@H]1C3", "values": [{"measurement": "ring closure, yield after HPLC", "setting": "[1]; from C=CCCCC(=O)NC[C@@]12C[C@@H](C(=O)Nc3nc(Br)ccc3C)N(C(=O)Cn3nc(C(C)=O)c4cc(-c5cnc(C)nc5)cc(CCC=C)c43)[C@@H]1C2, 17-membered ring, 7.0 mM, 2.5 h", "value": 15.8, "unit": "%"}, {"measurement": "ring closure, yield after HPLC", "setting": "[1]; from C=CCCCC(=O)NC[C@@]12C[C@@H](C(=O)Nc3nc(Br)ccc3C)N(C(=O)Cn3nc(C(C)=O)c4cc(-c5cnc(C)nc5)cc(CCC=C)c43)[C@@H]1C2, 18-membered ring, 7.0 mM, 2.5 h", "value": 11.6, "unit": "%"}]}
